Experimental data from ChEMBL document CHEMBL1201862, “PubChem BioAssay data set” (2004).
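Grown in 96-well plates, cells were treated for 48 hours with each compound at five concentrations. Insufficient inhibition: endpoint recorded as highest concentration tested. At the GI50, growth is halved.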 Calls of active or inactive are those of the source. No stated cut-off is given here; in the data, active = GI50 up to about 1.1 µM and inactive = higher.

Key:
Assay in all cases: inhibition of tumour cell growth, NCI panel, 48 h
UACC-62 = test system: UACC-62
LOX IMVI = test system: LOX IMVI
786-0 = test system: 786-0
NCI-H226 = test system: NCI-H226
HL-60 = test system: HL-60
ACHN = test system: ACHN
SF-268 = test system: SF-268
SK-MEL-5 = test system: SK-MEL-5
IGROV-1 = test system: IGROV-1
SK-MEL-2 = test system: SK-MEL-2
NCI-H522 = test system: NCI-H522
M14 = test system: M14
TK-10 = test system: TK-10
Malme-3M = test system: Malme-3M
CCRF-CEM = test system: CCRF-CEM
SF-295 = test system: SF-295
DU-145 = test system: DU-145
MCF7 = test system: MCF7
NCI/ADR-RES = test system: NCI/ADR-RES

Measured: GI50

COc1ccc(C(=O)CC(=O)C(=O)Nc2ccc(C)c(C)c2)cc1
inactive: UACC-62 > 95.5 µM | LOX IMVI 23.7 µM | 786-0 > 69 µM | NCI-H226 > 100 µM | HL-60 10.5 µM | ACHN > 100 µM | SF-268 56.2 µM | SK-MEL-5 97.9 µM | IGROV-1 > 93.3 µM | SK-MEL-2 > 100 µM | NCI-H522 68.9 µM | M14 > 100 µM | TK-10 > 100 µM | Malme-3M > 100 µM | CCRF-CEM 26.5 µM | SF-295 > 100 µM

CSC1=C(C(=O)Nc2ccc(C)cc2)C(N)=NC1=O
inactive: DU-145 > 100 µM | UACC-62 > 100 µM | LOX IMVI > 100 µM | MCF7 > 100 µM | 786-0 > 100 µM | NCI-H226 > 100 µM | HL-60 > 100 µM | ACHN > 100 µM | SF-268 > 100 µM | SK-MEL-5 > 100 µM | IGROV-1 > 100 µM | NCI/ADR-RES > 100 µM | M14 > 100 µM | TK-10 > 100 µM | CCRF-CEM > 100 µM | SF-295 > 100 µM

COc1ccc(OC(C)C(=O)O)c2c1CCCC2=O (stereo not given)
inactive: UACC-62 > 100 µM | LOX IMVI > 100 µM | 786-0 > 100 µM | NCI-H226 > 100 µM | HL-60 > 100 µM | ACHN > 100 µM | SF-268 > 100 µM | SK-MEL-5 > 100 µM | IGROV-1 > 100 µM | SK-MEL-2 > 100 µM | NCI-H522 > 100 µM | M14 > 100 µM | TK-10 > 100 µM | Malme-3M > 100 µM | CCRF-CEM > 100 µM | SF-295 > 100 µM

C/C(=N/OCCC(=O)O)C1CC1
inactive: UACC-62 > 100 µM | LOX IMVI > 100 µM | 786-0 > 100 µM | NCI-H226 > 100 µM | HL-60 > 100 µM | ACHN > 100 µM | SF-268 > 100 µM | SK-MEL-5 > 100 µM | IGROV-1 > 100 µM | SK-MEL-2 > 100 µM | NCI-H522 > 100 µM | M14 > 100 µM | TK-10 > 100 µM | Malme-3M > 100 µM | CCRF-CEM > 100 µM | SF-295 > 100 µM

O=C(c1ccccc1)c1nnn(Cc2ccccc2Cn2nnc(C(=O)c3ccccc3)c2C(=O)c2ccccc2)c1C(=O)c1ccccc1
inactive: UACC-62 > 100 µM | LOX IMVI > 100 µM | 786-0 > 100 µM | NCI-H226 47.4 µM | HL-60 > 100 µM | ACHN > 100 µM | SF-268 > 100 µM | SK-MEL-5 > 100 µM | IGROV-1 94.4 µM | SK-MEL-2 > 100 µM | NCI-H522 > 100 µM | M14 > 100 µM | TK-10 > 100 µM | Malme-3M > 100 µM | CCRF-CEM > 100 µM | SF-295 > 100 µM

COc1ccc(-c2c(C3=NCCCN3)nnn2-c2ccc([N+](=O)[O-])cc2)cc1
inactive: UACC-62 > 100 µM | LOX IMVI > 100 µM | 786-0 > 100 µM | NCI-H226 > 100 µM | HL-60 > 100 µM | ACHN > 100 µM | SF-268 > 100 µM | SK-MEL-5 > 100 µM | IGROV-1 > 100 µM | SK-MEL-2 > 100 µM | NCI-H522 > 100 µM | M14 > 100 µM | TK-10 > 100 µM | Malme-3M > 100 µM | CCRF-CEM > 100 µM | SF-295 > 100 µM

CCCCCCC(=O)CC(=O)C(=O)Nc1ccccc1C
inactive: UACC-62 > 100 µM | LOX IMVI > 43 µM | 786-0 > 55.5 µM | NCI-H226 > 100 µM | HL-60 > 100 µM | ACHN > 100 µM | SF-268 > 65.6 µM | SK-MEL-5 > 100 µM | IGROV-1 > 100 µM | SK-MEL-2 > 100 µM | NCI-H522 > 68.5 µM | M14 > 100 µM | TK-10 > 100 µM | Malme-3M > 100 µM | CCRF-CEM > 100 µM | SF-295 > 100 µM

Nc1cccc(/C=C/CN2CCN(CCOC(c3ccccc3)c3ccccc3)CC2)c1
inactive: DU-145 13.6 µM | UACC-62 17.4 µM | LOX IMVI 15.6 µM | MCF7 13.8 µM | 786-0 14.8 µM | NCI-H226 21.2 µM | HL-60 5.05 µM | ACHN 17.9 µM | SF-268 17.7 µM | SK-MEL-5 12.6 µM | IGROV-1 16.3 µM | SK-MEL-2 17.7 µM | NCI-H522 13.9 µM | NCI/ADR-RES 14.3 µM | M14 12.8 µM | TK-10 15.8 µM | Malme-3M 18.2 µM | CCRF-CEM 9.98 µM | SF-295 17.4 µM

CCOc1ccccc1/N=N/c1c(-c2ccccc2)nn(C(=O)CC(=O)Nc2cccc(C)c2)c1-c1ccccc1
inactive: UACC-62 > 100 µM | LOX IMVI > 100 µM | 786-0 > 100 µM | NCI-H226 > 100 µM | HL-60 > 100 µM | ACHN 54.3 µM | SF-268 74.8 µM | SK-MEL-5 > 100 µM | IGROV-1 > 100 µM | SK-MEL-2 > 100 µM | NCI-H522 > 100 µM | M14 > 100 µM | TK-10 > 100 µM | Malme-3M > 100 µM | CCRF-CEM > 100 µM | SF-295 > 100 µM

CN(C)/C(=N/C(=S)Nc1ccccc1)SCc1ccccc1
inactive: UACC-62 6.17 µM | LOX IMVI 42 µM | 786-0 56.1 µM | NCI-H226 36.1 µM | HL-60 18.2 µM | ACHN 45 µM | SF-268 48.3 µM | SK-MEL-5 3.14 µM | IGROV-1 74.3 µM | SK-MEL-2 49.9 µM | NCI-H522 2.73 µM | M14 67.8 µM | TK-10 > 100 µM | Malme-3M 40.2 µM | CCRF-CEM 11.7 µM | SF-295 42.9 µM

CSC1=Nc2ccccc2N=C(c2ccccc2)C1
inactive: UACC-62 > 100 µM | LOX IMVI 17.2 µM | 786-0 34.5 µM | NCI-H226 > 100 µM | HL-60 15.3 µM | ACHN > 100 µM | SF-268 > 100 µM | SK-MEL-5 44.5 µM | IGROV-1 > 100 µM | SK-MEL-2 > 100 µM | NCI-H522 37.6 µM | M14 > 100 µM | TK-10 80 µM | Malme-3M > 100 µM | CCRF-CEM 21 µM | SF-295 > 100 µM

CC(C)(Oc1ccc(/C=C/C(=O)c2ccccc2)cc1)C(=O)Nc1c(Cl)cccc1Cl
inactive: UACC-62 > 10 µM | LOX IMVI > 10 µM | 786-0 > 10 µM | NCI-H226 > 10 µM | HL-60 14.7 µM | ACHN > 10 µM | SF-268 > 10 µM | SK-MEL-5 > 10 µM | IGROV-1 > 10 µM | SK-MEL-2 > 10 µM | NCI-H522 4.67 µM | M14 > 10 µM | TK-10 > 10 µM | Malme-3M > 10 µM | CCRF-CEM 15 µM | SF-295 > 10 µM

Cc1nc(Nc2ccc(Cl)cc2)sc1C(=O)NNC(=O)C(=O)NN
inactive: UACC-62 15.3 µM | LOX IMVI 17.6 µM | 786-0 17.3 µM | NCI-H226 20.3 µM | HL-60 17.4 µM | ACHN 26.4 µM | SF-268 27.8 µM | SK-MEL-5 18.7 µM | IGROV-1 19.1 µM | SK-MEL-2 17.6 µM | NCI-H522 17.2 µM | M14 18.6 µM | TK-10 29.5 µM | Malme-3M 21.9 µM | CCRF-CEM 22.2 µM | SF-295 18.2 µM

O=[N+]([O-])c1ccc(-n2nnc(C3=NCCN3)c2-c2ccc(Cl)cc2)cc1
inactive: UACC-62 > 100 µM | LOX IMVI > 100 µM | 786-0 > 100 µM | NCI-H226 > 100 µM | HL-60 > 100 µM | ACHN > 100 µM | SF-268 73.3 µM | SK-MEL-5 > 100 µM | IGROV-1 > 100 µM | SK-MEL-2 > 100 µM | NCI-H522 > 100 µM | M14 > 100 µM | TK-10 69 µM | Malme-3M > 100 µM | CCRF-CEM > 100 µM | SF-295 > 100 µM

COC1(OC)C2(Cl)C3=CCCC=C3C1(Cl)C(Cl)=C2Cl
inactive: UACC-62 25.5 µM | LOX IMVI 15.3 µM | 786-0 27.4 µM | NCI-H226 45.7 µM | HL-60 13.9 µM | ACHN 28 µM | SF-268 27.4 µM | SK-MEL-5 14.3 µM | IGROV-1 36.5 µM | SK-MEL-2 16.9 µM | NCI-H522 12.9 µM | M14 13.2 µM | TK-10 > 100 µM | Malme-3M 16.7 µM | CCRF-CEM 19.8 µM | SF-295 25.1 µM

O=S(=O)(O)c1ccc(/N=N/c2ccc(/N=N/c3c(O)ccc4cc(S(=O)(=O)O)ccc34)cc2)cc1
inactive: UACC-62 > 100 µM | MCF7 > 100 µM | 786-0 > 100 µM | NCI-H226 > 100 µM | HL-60 > 100 µM | ACHN > 100 µM | SF-268 > 100 µM | SK-MEL-5 > 100 µM | IGROV-1 > 100 µM | SK-MEL-2 > 100 µM | NCI-H522 > 100 µM | NCI/ADR-RES > 100 µM | M14 > 100 µM | TK-10 > 100 µM | Malme-3M > 100 µM | CCRF-CEM > 100 µM | SF-295 > 100 µM

CC(=O)Nc1ccc(S(=O)(=O)Nc2nnc(S(N)(=O)=O)s2)cc1
inactive: DU-145 > 100 µM | UACC-62 > 100 µM | LOX IMVI > 100 µM | MCF7 > 100 µM | 786-0 > 100 µM | NCI-H226 > 100 µM | HL-60 > 100 µM | ACHN > 100 µM | SF-268 > 100 µM | NCI-H522 > 100 µM | NCI/ADR-RES > 100 µM | M14 > 100 µM | TK-10 > 100 µM | Malme-3M > 100 µM | SF-295 > 100 µM
